The OPERA property sets (Mansouri et al. 2018)

`NNC(=O)Nc1ccccc1O` showed a logP of 0.33. `NNC(=O)Nc1ccccc1` showed a logP of 0.16. Work on `NNC(=O)Nc1cccc(C(=O)O)c1` yielded a logP of -0.16. Molecule `NNC(=O)Nc1ccccc1C(=O)O` has a logP of -0.49. `NNC(=O)Nc1ccccc1[N+](=O)[O-]` gave a logP of -0.47. Molecule `COc1ccccc1NC(=O)NN` has a logP of -0.15. For `NNC(=O)Nc1ccc([N+](=O)[O-])cc1`, the logP was -0.18. `NNC(=O)Nc1ccc(Cl)cc1` showed a logP of 0.87. Work on `COc1ccc(NC(=O)NN)cc1` yielded a logP of 0.17. Molecule `NNC(=O)Nc1ccc(C(=O)O)cc1` has a logP of -0.21. Work on `Cc1ccc(NC(=O)NN)cc1` yielded a logP of 0.69. Molecule `Cc1cccc(NC(=O)NN)c1` has a logP of 0.68.
